Measured values as given in ChEMBL document CHEMBL6153137, “Design, Synthesis, and Biological Evaluation of Novel Orally Available Covalent CDK12/13 Dual Inhibitors for the Treatment of Tumors” (J Med Chem, 2025).
Activity calls are given as the source filed them. No cut-off for these calls is given here.

Columns and labels:
[1] = target: T1, Cyclin-dependent kinase 13/Cyclin-K (Homo sapiens, UniProt Q14004); assay: Inhibition of CDK13/Cyclin K (unknown origin) using pS7-CTD peptide and ATP as substrate incubated for 120 mins by ADP-Glo reagent based luminescence analysis; assay type: protein-complex assay
T1 sequence (Q14004 whole entry): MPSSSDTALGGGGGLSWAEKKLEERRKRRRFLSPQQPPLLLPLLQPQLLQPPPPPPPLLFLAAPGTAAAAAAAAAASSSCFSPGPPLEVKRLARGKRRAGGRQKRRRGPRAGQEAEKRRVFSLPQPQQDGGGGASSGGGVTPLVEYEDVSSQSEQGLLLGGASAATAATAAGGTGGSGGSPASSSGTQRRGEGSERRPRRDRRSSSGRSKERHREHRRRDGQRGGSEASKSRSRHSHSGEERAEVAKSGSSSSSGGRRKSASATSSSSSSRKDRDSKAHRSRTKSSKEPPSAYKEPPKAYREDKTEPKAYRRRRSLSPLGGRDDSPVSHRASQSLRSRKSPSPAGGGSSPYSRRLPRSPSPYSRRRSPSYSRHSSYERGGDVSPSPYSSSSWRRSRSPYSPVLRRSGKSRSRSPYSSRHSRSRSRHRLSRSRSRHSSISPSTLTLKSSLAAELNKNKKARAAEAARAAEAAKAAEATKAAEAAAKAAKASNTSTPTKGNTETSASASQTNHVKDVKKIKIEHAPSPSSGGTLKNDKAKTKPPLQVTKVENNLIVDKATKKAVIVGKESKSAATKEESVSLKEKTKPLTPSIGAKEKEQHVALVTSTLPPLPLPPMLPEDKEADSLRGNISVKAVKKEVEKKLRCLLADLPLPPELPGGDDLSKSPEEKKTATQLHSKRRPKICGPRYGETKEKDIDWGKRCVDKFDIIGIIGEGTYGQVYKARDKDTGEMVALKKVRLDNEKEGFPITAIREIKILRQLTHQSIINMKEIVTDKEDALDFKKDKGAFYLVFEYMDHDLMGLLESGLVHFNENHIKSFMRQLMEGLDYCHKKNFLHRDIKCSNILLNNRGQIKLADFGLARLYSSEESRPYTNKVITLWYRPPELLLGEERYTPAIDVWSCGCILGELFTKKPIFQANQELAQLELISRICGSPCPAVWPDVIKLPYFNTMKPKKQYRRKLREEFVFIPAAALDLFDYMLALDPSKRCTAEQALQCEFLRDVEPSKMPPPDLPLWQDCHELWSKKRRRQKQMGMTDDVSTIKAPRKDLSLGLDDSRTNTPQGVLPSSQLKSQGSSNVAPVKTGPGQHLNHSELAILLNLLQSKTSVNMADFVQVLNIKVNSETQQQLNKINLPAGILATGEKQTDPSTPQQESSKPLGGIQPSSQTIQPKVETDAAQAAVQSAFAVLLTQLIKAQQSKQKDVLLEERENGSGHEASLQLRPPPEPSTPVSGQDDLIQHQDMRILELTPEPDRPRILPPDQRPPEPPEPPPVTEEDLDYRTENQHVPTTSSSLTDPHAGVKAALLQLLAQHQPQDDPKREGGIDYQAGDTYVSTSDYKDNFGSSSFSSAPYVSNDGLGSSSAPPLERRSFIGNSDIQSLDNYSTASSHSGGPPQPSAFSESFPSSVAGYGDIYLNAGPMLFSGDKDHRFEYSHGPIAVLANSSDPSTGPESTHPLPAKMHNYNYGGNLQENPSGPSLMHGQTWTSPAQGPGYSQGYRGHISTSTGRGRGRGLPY
T1 sequence (O75909 whole entry, further chain): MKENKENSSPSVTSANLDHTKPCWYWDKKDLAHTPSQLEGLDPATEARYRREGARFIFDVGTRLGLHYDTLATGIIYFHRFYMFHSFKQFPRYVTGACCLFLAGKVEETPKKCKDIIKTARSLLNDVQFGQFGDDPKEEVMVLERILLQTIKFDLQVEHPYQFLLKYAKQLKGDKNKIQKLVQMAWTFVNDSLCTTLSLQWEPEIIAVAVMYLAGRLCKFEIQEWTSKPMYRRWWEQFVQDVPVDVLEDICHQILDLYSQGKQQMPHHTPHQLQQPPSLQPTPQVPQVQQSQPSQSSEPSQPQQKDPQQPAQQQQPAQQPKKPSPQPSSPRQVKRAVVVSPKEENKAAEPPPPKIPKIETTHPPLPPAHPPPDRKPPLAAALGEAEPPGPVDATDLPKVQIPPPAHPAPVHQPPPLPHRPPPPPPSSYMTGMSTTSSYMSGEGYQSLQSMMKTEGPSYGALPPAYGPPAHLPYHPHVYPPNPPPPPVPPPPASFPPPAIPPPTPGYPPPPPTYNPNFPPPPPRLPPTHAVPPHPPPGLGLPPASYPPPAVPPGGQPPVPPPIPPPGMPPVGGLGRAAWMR

[2] = GSH reactivity assessed as half life to adduct formation at 10 uM by LC-MS/MS analysis; assay type: physicochemical
MV4-11 = assay: Antiproliferative activity against human MV4-11 cells assessed as reduction in cell viability incubated for 7 days by CellTiter-Glo reagent based luminescence analysis; assay type: functional; details: MV4-11, 168 h
NCI-H508 = assay: Antiproliferative activity against human NCI-H508 cells assessed as reduction in cell viability incubated for 7 days by CellTiter-Glo reagent based luminescence analysis; assay type: functional; details: NCI-H508, 168 h
[3] = target: Cyclin-dependent kinase 12/13 (Homo sapiens) (UniProt Q14004+Q9NYV4); assay: Inhibition of CDK12/13 in human SUM149PT cells assessed as reduction in level of phosphorylation of Ser2 on RNA Pol II CTD incubated for 24 hrs by western blot analysis; assay type: cell-based; details: dose 250-1000 nM
[4] = target: Cyclin-dependent kinase 13/Cyclin-K (Homo sapiens) (UniProt Q14004+O75909); assay: Inhibition of human recombinant N-terminal GST-tagged CDK13/N-terminal FLAG and C-terminal His-tagged Cyclin K expressed in HEP Sf9 cells using ATP as substrate at 2 uM measured after 60 mins by ADP-Glo reagent based luminescence assay
Chain of Cyclin-dependent kinase 13/Cyclin-K (Homo sapiens) (O75909 whole entry, looked up): as the sequence (O75909 whole entry, further chain) above
Chain of Cyclin-dependent kinase 13/Cyclin-K (Homo sapiens) (Q14004 whole entry, looked up): as the sequence (Q14004 whole entry) above

HEP Sf9 = assay: Inhibition of human recombinant N-terminal GST-tagged CDK4/C-terminal 6XHis-tagged Cyclin D3 S259A mutant expressed in HEP Sf9 cells using ATP as substrate at 2 uM measured after 60 mins by ADP-Glo reagent based luminescence assay
[5] = target: Cyclin-Y/Cyclin-dependent kinase 16 (Homo sapiens) (UniProt Q00536+Q8ND76); assay: Inhibition of human recombinant N-terminal GST-tagged CDK16/N-terminal GST-tagged Cyclin Y expressed in HEP Sf9 cells using ATP as substrate at 2 uM measured after 60 mins by ADP-Glo reagent based luminescence analysis
[6] = target: T1, Cyclin-dependent kinase 13/Cyclin-K; assay: Inhibition of human recombinant N-terminal GST-tagged CDK13/N-terminal FLAG and C-terminal His-tagged Cyclin K expressed in HEP Sf9 cells using ATP as substrate measured after 60 mins by ADP-Glo reagent based luminescence assay
CDK7/Cyclin H/MNAT1 = CDK7/Cyclin H/MNAT1 (Homo sapiens, UniProt P50613); assay: Inhibition of human recombinant N-terminal 6X His-tagged CDK7/CCNH/N-terminal 6X His-tagged MNAT1 expressed in HEP Sf9 cells using ATP as substrate measured after 60 mins by ADP-Glo reagent based luminescence assay
Chain of CDK7/Cyclin H/MNAT1 (P51946 whole entry): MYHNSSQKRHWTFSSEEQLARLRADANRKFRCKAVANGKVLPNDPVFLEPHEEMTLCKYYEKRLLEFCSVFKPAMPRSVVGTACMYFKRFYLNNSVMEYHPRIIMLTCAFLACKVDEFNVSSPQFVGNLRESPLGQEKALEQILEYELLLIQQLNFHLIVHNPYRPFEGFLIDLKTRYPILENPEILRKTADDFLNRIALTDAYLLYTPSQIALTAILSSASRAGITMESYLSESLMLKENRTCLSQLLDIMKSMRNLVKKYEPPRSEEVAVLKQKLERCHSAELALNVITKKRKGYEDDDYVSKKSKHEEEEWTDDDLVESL
Chain of CDK7/Cyclin H/MNAT1 (P50613 whole entry): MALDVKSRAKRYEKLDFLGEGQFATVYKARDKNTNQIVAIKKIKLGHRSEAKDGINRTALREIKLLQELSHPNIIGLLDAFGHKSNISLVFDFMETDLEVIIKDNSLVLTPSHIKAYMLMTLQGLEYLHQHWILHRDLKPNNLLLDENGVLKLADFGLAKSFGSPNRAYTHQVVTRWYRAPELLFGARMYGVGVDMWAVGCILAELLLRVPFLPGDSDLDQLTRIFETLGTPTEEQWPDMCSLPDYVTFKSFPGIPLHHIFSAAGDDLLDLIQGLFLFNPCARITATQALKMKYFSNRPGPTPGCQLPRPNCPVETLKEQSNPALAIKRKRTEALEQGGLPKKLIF
Chain of CDK7/Cyclin H/MNAT1 (P51948 whole entry, further chain): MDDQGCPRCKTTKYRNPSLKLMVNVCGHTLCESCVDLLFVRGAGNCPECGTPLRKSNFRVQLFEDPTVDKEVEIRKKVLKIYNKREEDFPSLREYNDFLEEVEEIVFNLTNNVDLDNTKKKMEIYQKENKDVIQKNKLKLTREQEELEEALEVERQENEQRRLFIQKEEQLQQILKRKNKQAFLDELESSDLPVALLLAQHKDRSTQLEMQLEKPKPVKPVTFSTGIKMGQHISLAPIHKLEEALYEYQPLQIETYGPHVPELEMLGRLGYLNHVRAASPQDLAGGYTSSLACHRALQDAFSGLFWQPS

Cytochrome P450 1A2 = Cytochrome P450 1A2 (Homo sapiens, UniProt P05177); assay: Inhibition of CYP1A2 in human liver microsomes assessed as inhibition of phenacetin-O-deethylation incubated for 10 mins in presence of NADPH by LC-MS/MS analysis; assay type: ADME, Microsome
Chain of Cytochrome P450 1A2 (P05177 whole entry): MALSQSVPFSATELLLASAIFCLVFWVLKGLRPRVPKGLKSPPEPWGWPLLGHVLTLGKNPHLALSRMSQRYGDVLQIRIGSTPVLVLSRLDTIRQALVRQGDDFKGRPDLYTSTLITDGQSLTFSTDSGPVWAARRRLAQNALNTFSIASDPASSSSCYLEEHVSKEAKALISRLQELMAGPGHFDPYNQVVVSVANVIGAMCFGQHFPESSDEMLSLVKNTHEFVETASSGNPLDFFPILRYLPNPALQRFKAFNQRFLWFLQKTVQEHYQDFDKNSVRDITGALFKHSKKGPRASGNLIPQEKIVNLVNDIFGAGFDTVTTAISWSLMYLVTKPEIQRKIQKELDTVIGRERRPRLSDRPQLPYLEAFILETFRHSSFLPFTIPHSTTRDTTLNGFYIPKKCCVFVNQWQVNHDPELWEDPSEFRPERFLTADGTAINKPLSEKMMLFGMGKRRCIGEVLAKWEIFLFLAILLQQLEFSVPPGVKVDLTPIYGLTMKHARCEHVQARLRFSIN

[7] = target: Voltage-gated inwardly rectifying potassium channel KCNH2 (Homo sapiens, UniProt Q12809); assay: Inhibition of hERG expressed in CHO cells assessed as inhibition of channel current measured at holding potential of -80 mV by whole cell patch clamp analysis; assay type: toxicity, cell-based
Chain of Voltage-gated inwardly rectifying potassium channel KCNH2 (Q12809 whole entry): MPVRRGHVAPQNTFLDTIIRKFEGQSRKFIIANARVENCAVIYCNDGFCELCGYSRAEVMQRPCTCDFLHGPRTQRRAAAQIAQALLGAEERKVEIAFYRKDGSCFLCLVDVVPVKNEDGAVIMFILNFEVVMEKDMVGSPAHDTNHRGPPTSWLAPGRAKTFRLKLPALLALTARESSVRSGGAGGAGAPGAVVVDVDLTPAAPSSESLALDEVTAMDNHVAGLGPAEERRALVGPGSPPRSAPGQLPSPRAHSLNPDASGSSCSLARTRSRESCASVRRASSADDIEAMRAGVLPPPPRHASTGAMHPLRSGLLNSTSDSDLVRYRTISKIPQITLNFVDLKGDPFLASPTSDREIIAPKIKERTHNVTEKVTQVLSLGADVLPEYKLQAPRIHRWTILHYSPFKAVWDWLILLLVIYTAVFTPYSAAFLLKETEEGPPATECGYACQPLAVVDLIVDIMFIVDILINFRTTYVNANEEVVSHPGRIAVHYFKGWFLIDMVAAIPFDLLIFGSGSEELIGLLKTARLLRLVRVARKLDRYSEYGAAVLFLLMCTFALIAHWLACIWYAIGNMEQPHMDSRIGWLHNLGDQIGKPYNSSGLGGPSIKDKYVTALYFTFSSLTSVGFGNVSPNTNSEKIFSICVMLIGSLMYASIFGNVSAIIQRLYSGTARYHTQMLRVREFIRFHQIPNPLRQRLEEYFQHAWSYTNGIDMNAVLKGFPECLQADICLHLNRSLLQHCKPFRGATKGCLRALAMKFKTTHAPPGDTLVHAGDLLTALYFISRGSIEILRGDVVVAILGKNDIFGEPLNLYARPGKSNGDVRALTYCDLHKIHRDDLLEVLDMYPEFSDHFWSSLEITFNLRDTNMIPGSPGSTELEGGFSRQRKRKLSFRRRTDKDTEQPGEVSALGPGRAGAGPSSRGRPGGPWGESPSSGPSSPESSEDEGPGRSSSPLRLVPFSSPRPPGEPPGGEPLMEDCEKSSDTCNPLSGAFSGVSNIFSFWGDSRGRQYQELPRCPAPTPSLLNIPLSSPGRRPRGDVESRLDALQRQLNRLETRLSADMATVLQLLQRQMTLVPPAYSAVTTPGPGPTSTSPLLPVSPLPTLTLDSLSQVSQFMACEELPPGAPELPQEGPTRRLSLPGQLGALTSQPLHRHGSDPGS

SUM149PT = assay: Antitumor activity against human SUM149PT cells xenografted in Balb/c mouse assessed as inhibition of tumor growth at 30 mg/kg, po administered once daily via gavage and measured on day 20; assay type: functional; details: 480 h, time 20 day, read-out: TGI
[8] = Ratio of drug level in tumor to plasma in Balb/c mouse xenografted with human SUM149PT cells at 60 mg/kg, po administered via gavage and measured after 2 hrs; assay type: ADME, organism-based
[9] = Cmax in Balb/c mouse xenografted with human MV4-11 cells at 30 mg/kg, po administered once daily via gavage; assay type: ADME, organism-based; details: in vivo
Mus musculus = assay: In vivo inhibition of CDK7 in Balb/c mouse xenografted with human SUM149PT cells assessed as reduction in phosphorylation of Ser5 on RNA Pol II at 15 to 30 mg/kg, po administered once daily via gavage and measured at 4 hrs post-last drug dosage by western blot analysis; assay type: functional, organism-based; details: dose 15-30 mg/kg
[10] = Volume of distribution at steady state in Sprague-Dawley rat at 1 mg/kg, iv measured for 24 hrs by LC-MS/MS analysis; assay type: ADME, organism-based; details: in vivo, read-out: Vdss
[11] = Half life in Sprague-Dawley rat at 15 mg/kg, po measured for 24 hrs by LC-MS/MS analysis; assay type: ADME, organism-based; details: in vivo
[12] = Cmax in Sprague-Dawley rat at 50 mg/kg, po measured for 24 hrs by LC-MS/MS analysis; assay type: ADME, organism-based; details: in vivo
[13] = Oral bioavailability in Sprague-Dawley rat at 5 mg/kg measured for 24 hrs by LC-MS/MS analysis; assay type: ADME, organism-based; details: in vivo
[14] = Toxicity against male Sprague-Dawley rat assessed as effect on monocytes level at 10 to 40 mg/kg, po administered once daily via gavage for 28 days and measured on day 29; assay type: organism-based; details: in vivo, 696 h, dose 10-40 mg/kg, time 29 day
[15] = Toxicity against female Sprague-Dawley rat assessed as effect on mean corpuscular hemoglobin at 7.5 to 30 mg/kg, po administered once daily via gavage for 28 days and measured on day 29; assay type: organism-based; details: in vivo, 696 h, dose 7.5-30 mg/kg, time 29 day
[16] = Toxicity against female Sprague-Dawley rat assessed as effect on glucose level in blood at 7.5 to 30 mg/kg, po administered once daily via gavage for 28 days and measured on day 29; assay type: organism-based; details: in vivo, 696 h, dose 7.5-30 mg/kg, time 29 day
[17] = Toxicity against female Sprague-Dawley rat assessed as decrease in thymus weight at 7.5 to 30 mg/kg, po administered once daily via gavage for 28 days and measured on day 29; assay type: organism-based; details: in vivo, 696 h, dose 7.5-30 mg/kg, time 29 day
[18] = Half life in female Sprague-Dawley rat at 30 mg/kg, po administered via gavage and measured on day 1; assay type: ADME, organism-based; details: in vivo, time 1 day
[19] = Cmax in male Sprague-Dawley rat at 20 mg/kg, po administered via gavage and measured on day 1; assay type: ADME, organism-based; details: in vivo, time 1 day
[20] = Cmax in female Sprague-Dawley rat at 15 mg/kg, po administered via gavage and measured on day 1; assay type: ADME, organism-based; details: in vivo, time 1 day
[21] = Cmax in female Sprague-Dawley rat at 30 mg/kg, po administered once daily via gavage for 28 days; assay type: ADME, organism-based; details: in vivo, time 28 day
[22] = AUC(0 to t) in male Sprague-Dawley rat at 10 mg/kg, po administered via gavage and measured on day 1; assay type: ADME, organism-based; details: in vivo, 24 h, time 1 day
[23] = AUC(0 to t) in male Sprague-Dawley rat at 40 mg/kg, po administered via gavage and measured on day 1; assay type: ADME, organism-based; details: in vivo, 24 h, time 1 day
[24] = AUC(0 to t) in female Sprague-Dawley rat at 7.5 mg/kg, po administered via gavage and measured on day 1; assay type: ADME, organism-based; details: in vivo, 24 h, time 1 day
[25] = AUC(0 to t) in male Sprague-Dawley rat at 20 mg/kg, po administered once daily via gavage for 28 days; assay type: ADME, organism-based; details: in vivo, 672 h, time 28 day
[26] = Toxicity against female Sprague-Dawley rat assessed as body weight loss at 30 mg/kg, po administered once daily via gavage for 28 days and measured twice a week; assay type: organism-based; details: in vivo, 672 h, time 28 day

- IC50 [1]: 79.4 nM
- t1/2 [2]: 1.38 h
- IC50 (MV4-11): 84 nM
- IC50 (NCI-H508): 87 nM
- inhibition [3]: Dose-dependent-effect
- inhibition [4]: 83%
- inhibition [5]: 64%
- IC50 [6]: 111 nM
- IC50 (CDK7/Cyclin H/MNAT1): 204 nM
- IC50 (Cytochrome P450 1A2): > 50000 nM
- Kp at 2 h [8]: 0.42
- Cmax [9]: 1350 ng/mL
- Vd [10]: 0.72 L/kg
- half-life [11]: 1.81 h
- Cmax [12]: 1900 ng/mL
- bioavailability [13]: 35.7%
- half-life [18]: 4 h
- Cmax [19]: 1070 ng/mL
- Cmax [20]: 1280 ng/mL
- Cmax [21]: 1690 ng/mL
- AUCt [22]: 978 ng·h/mL
- AUCt [23]: 7120 ng·h/mL
- AUCt [24]: 1640 ng·h/mL
- AUCt [25]: 2870 ng·h/mL
SMILES: C=CC(=O)N1CCc2c(ncnc2N2CC[C@@H](Nc3ncc(Cl)c(OC)n3)C2)C1
- inhibition (HEP Sf9): 68%
- IC50 [7]: > 30000 nM
- inhibition in vivo at 30 mg/kg (SUM149PT): 101%
- inhibition (Mus musculus): inactive
- Activity [14]: Non-toxic
- Activity [15]: Non-toxic
- Activity [16]: Non-toxic
- Activity [17]: Toxic
- Activity [26]: Toxic
